According to US10597388B2, “Pyridazinone herbicides” (FMC CORPORATION, priority 2014, dated 2020):

What was measured:
Assay in all cases: Test D controlled growth environment herbicide test, pre- and postemergence
Assay type in all cases: in vivo
[1] = test system: mustard, wild (wild mustard, Sinapis arvensis)
Text: (§1) Seeds of plant species selected from bluegrass (annual bluegrass, Poa annua), blackgrass (Alopecurus myosuroides), Canada thistle (Cirsium arvense), canarygrass (Phalaris minor), chickweed (common chickweed, Stellaria media), geranium, cutleaf (cutleaf geranium, Geranium dissectum), galium (catchweed bedstraw, Galium aparine), bromegrass, downy (downy bromegrass, Bromus tectorum), field poppy (Papaver rhoeas), field violet (Viola arvensis), foxtail, green (green foxtail, Setaria viridis), deadnettle (henbit deadnettle, Lamium amplexicaule), ryegrass, Italian (Italian ryegrass, Lolium multiflorum), kochia (Kochia scoparia), lambsquarters (Chenopodium album), oilseed rape (Brassica napus), pigweed (Amaranthus retroflexus), chamomile (scentless chamomile, Matricaria inodora), Russian thistle (Salsola kali), speedwell (bird's-eye speedwell, Veronica persica), barley, spring (spring barley, Hordeum vulgare), wheat, spring (spring wheat, Triticum aestivum), buckwheat, wild (wild buckwheat, Polygonum convolvulus), mustard, wild (wild mustard, Sinapis arvensis), oat, wild (wild oat, Avena fatua), radish, wild (wild radish, Raphanus raphanistrum), windgrass (Apera spica-venti), barley, winter (winter barley, Hordeum vulgare), and wheat, winter (winter wheat, Triticum aestivum) were planted into a silt loam soil and treated preemergence with test chemicals formulated in a non-phytotoxic solvent mixture which included a surfactant.
(§2) At the same time, these species were planted in pots containing Redi-Earth® planting medium (Scotts Company, 14111 Scottslawn Road, Marysville, Ohio 43041) comprising spaghnum peat moss, vermiculite, wetting agent and starter nutrients and treated with postemergence applications of the test chemicals formulated in the same manner. Plants ranged in height from 2 to 18 cm (1- to 4-leaf stage). Treated plants and controls were maintained in a controlled growth environment for 14 to 21 d after which time all species were compared to controls and visually evaluated. Plant response ratings, summarized in Table D, are based on a scale of 0 to 100 where 0 is no effect and 100 is complete control. A dash (-) response means no test result.

[2] = test system: wheat, spring (spring wheat, Triticum aestivum)
Text: as §1, §2

[3] = test system: barley, spring (spring barley, Hordeum vulgare)
Text: as §1, §2

[4] = test system: pigweed (Amaranthus retroflexus)
Text: as §1, §2

[5] = test system: Russian thistle (Salsola kali)
Text: as §1, §2

[6] = test system: field violet (Viola arvensis)
Text: as §1, §2

[7] = test system: windgrass (Apera spica-venti)
Text: as §1, §2

[8] = test system: foxtail, green (green foxtail, Setaria viridis)
Text: as §1, §2

[9] = test system: kochia (Kochia scoparia)
Text: as §1, §2

[10] = test system: oat, wild (wild oat, Avena fatua)
Text: as §1, §2

[11] = test system: wheat, winter (winter wheat, Triticum aestivum)
Text: as §1, §2

[12] = test system: deadnettle (henbit deadnettle, Lamium amplexicaule)
Text: as §1, §2

[13] = test system: bluegrass (annual bluegrass, Poa annua)
Text: as §1, §2

[14] = Postemergence, 31 g ai/ha, scale 0 to 100 (0 no effect, 100 complete control)
[15] = Postemergence, 125 g ai/ha, visual rating on scale 0 (no effect) to 100 (complete control), 14 to 21 d
[16] = Postemergence, 250 g ai/ha, scale 0 to 100 (0 no effect, 100 complete control)
[17] = Preemergence, 62 g ai/ha, scale 0 to 100 (0 no effect, 100 complete control)
[18] = Preemergence, 125 g ai/ha, scale 0 to 100 (0 no effect, 100 complete control)
[19] = Preemergence, 250 g ai/ha, scale 0 to 100 (0 no effect, 100 complete control)
[20] = postemergence, 62 g ai/ha, scale 0 to 100, 0 no effect, 100 complete control

## CCC(=O)Oc1c(C)nn(C)c(=O)c1-c1c(C)sc2c(C)cc(C)cc12 [Compound 28]
[1]; [14]
  Mustard, Wild plant response rating: 35
[1]; [15]
  Plant response rating, Mustard, Wild: 70
[1]; [16]
  Plant response rating, Mustard, Wild: 70
[1]; Preemergence, 31 g ai/ha
  Plant response rating (scale of 0 to 100), Mustard, Wild: 10
[1]; [17]
  Plant response rating, Mustard, Wild: 15
[1]; [18]
  Plant response rating, Mustard, Wild: 30
[1]; [19]
  Plant response rating, Mustard, Wild: 55
[1]; [20]
  Plant response rating, Mustard, Wild: 45
[2]; [14]
  Wheat, Spring plant response rating: 0
[2]; [15]
  Plant response rating, Wheat, Spring: 10
[2]; [16]
  Plant response rating, Wheat, Spring: 20
[2]; Preemergence, 31 g ai/ha
  Plant response rating (scale of 0 to 100), Wheat, Spring: 0
[2]; [17]
  Plant response rating, Wheat, Spring: 0
[2]; [18]
  Plant response rating, Wheat, Spring: 5
[2]; [19]
  Plant response rating, Wheat, Spring: 25
[2]; [20]
  Plant response rating, Wheat, Spring: 5
[3]; [14]
  Plant response rating, Barley, Spring: 5
[3]; [15]
  Plant response rating, Barley, Spring: 5
[3]; [16]
  Plant response rating, Barley, Spring: 10
[3]; Preemergence, 31 g ai/ha
  Plant response rating (scale of 0 to 100), Barley, Spring: 0
[3]; [17]
  Plant response rating, Barley, Spring: 0
[3]; [18]
  Plant response rating, Barley, Spring: 0
[3]; [19]
  Barley, Spring plant response rating: 0
[3]; [20]
  Plant response rating, Barley, Spring: 5
[4]; [14]
  Pigweed plant response rating: 75
[4]; [15]
  Plant response rating, Pigweed: 100
[4]; [16]
  Plant response rating, Pigweed: 90
[4]; Preemergence, 31 g ai/ha
  Plant response rating (scale of 0 to 100), Pigweed: 90
[4]; [17]
  Plant response rating, Pigweed: 100
[4]; [18]
  Plant response rating, Pigweed: 100
[4]; [19]
  Plant response rating, Pigweed: 100
[4]; [20]
  Plant response rating, Pigweed: 90
[5]; [14]
  Russian Thistle plant response rating: 70
[5]; [15]
  Plant response rating, Russian Thistle: 80
[5]; [16]
  Plant response rating, Russian Thistle: 85
[5]; Preemergence, 31 g ai/ha
  Plant response rating (scale of 0 to 100), Russian Thistle: 0
[5]; [17]
  Plant response rating, Russian Thistle: 0
[5]; [18]
  Plant response rating, Russian Thistle: 15
[5]; [19]
  Plant response rating, Russian Thistle: 35
[5]; [20]
  Plant response rating, Russian Thistle: 75
[6]; [14]
  Field Violet plant response rating: 80
[6]; [15]
  Plant response rating, Field Violet: 85
[6]; [16]
  Plant response rating, Field Violet: 90
[6]; Preemergence, 31 g ai/ha
  Plant response rating (scale of 0 to 100), Field Violet: 75
[6]; [17]
  Plant response rating, Field Violet: 85
[6]; [18]
  Plant response rating, Field Violet: 100
[6]; [19]
  Plant response rating, Field Violet: 100
[6]; [20]
  Plant response rating, Field Violet: 75
[7]; [14]
  Windgrass plant response rating: 70
[7]; [15]
  Plant response rating, Windgrass: 85
[7]; [16]
  Plant response rating, Windgrass: 85
[7]; Preemergence, 31 g ai/ha
  Plant response rating (scale of 0 to 100), Windgrass: 70
[7]; [17]
  Plant response rating, Windgrass: 75
[7]; [18]
  Plant response rating, Windgrass: 90
[7]; [19]
  Plant response rating, Windgrass: 100
[7]; [20]
  Plant response rating, Windgrass: 80
[8]; [14]
  Foxtail, Green plant response rating: 65
[8]; [15]
  Plant response rating, Foxtail, Green: 85
[8]; [16]
  Plant response rating, Foxtail, Green: 90
[8]; Preemergence, 31 g ai/ha
  Plant response rating (scale of 0 to 100), Foxtail, Green: 70
[8]; [17]
  Plant response rating, Foxtail, Green: 80
[8]; [18]
  Plant response rating, Foxtail, Green: 100
[8]; [19]
  Plant response rating, Foxtail, Green: 100
[8]; [20]
  Plant response rating, Foxtail, Green: 75
[9]; [14]
  Kochia plant response rating: 35
[9]; [15]
  Plant response rating, Kochia: 50
[9]; [16]
  Plant response rating, Kochia: 75
[9]; Preemergence, 31 g ai/ha
  Plant response rating (scale of 0 to 100), Kochia: 20
[9]; [17]
  Plant response rating, Kochia: 20
[9]; [18]
  Plant response rating, Kochia: 30
[9]; [19]
  Plant response rating, Kochia: 65
[9]; [20]
  Plant response rating, Kochia: 40
[10]; [14]
  Oat, Wild plant response rating: 75
[10]; [15]
  Plant response rating, Oat, Wild: 90
[10]; [16]
  Plant response rating, Oat, Wild: 95
[10]; Preemergence, 31 g ai/ha
  Plant response rating (scale of 0 to 100), Oat, Wild: 85
[10]; [17]
  Plant response rating, Oat, Wild: 85
[10]; [18]
  Plant response rating, Oat, Wild: 90
[10]; [19]
  Plant response rating, Oat, Wild: 100
[10]; [20]
  Plant response rating, Oat, Wild: 85
[11]; [14]
  Wheat, Winter plant response rating: 5
[11]; [15]
  Plant response rating, Wheat, Winter: 5
[11]; [16]
  Plant response rating, Wheat, Winter: 15
[11]; Preemergence, 31 g ai/ha
  Plant response rating (scale of 0 to 100), Wheat, Winter: 0
[11]; [17]
  Plant response rating, Wheat, Winter: 0
[11]; [18]
  Plant response rating, Wheat, Winter: 0
[11]; [19]
  Plant response rating, Wheat, Winter: 0
[11]; [20]
  Plant response rating, Wheat, Winter: 5
[12]; [14]
  Deadnettle plant response rating: 10
[12]; [15]
  Plant response rating, Deadnettle: 35
[12]; [16]
  Plant response rating, Deadnettle: 70
[12]; Preemergence, 31 g ai/ha
  Plant response rating (scale of 0 to 100), Deadnettle: 0
[12]; [17]
  Plant response rating, Deadnettle: 0
[12]; [18]
  Plant response rating, Deadnettle: 5
[12]; [19]
  Plant response rating, Deadnettle: 5
[12]; [20]
  Plant response rating, Deadnettle: 35
[13]; [14]
  Bluegrass plant response rating: 20
[13]; [15]
  Plant response rating, Bluegrass: 35
[13]; [16]
  Plant response rating, Bluegrass: 50
[13]; Preemergence, 31 g ai/ha
  Plant response rating (scale of 0 to 100), Bluegrass: 30
[13]; [17]
  Plant response rating, Bluegrass: 45
[13]; [18]
  Plant response rating, Bluegrass: 65
[13]; [19]
  Bluegrass plant response rating: 75
[13]; [20]
  Plant response rating, Bluegrass: 30
